According to patent US20240409536A1, “COMPOUNDS AND METHODS FOR MODULATING SPLICING” (REMIX THERAPEUTICS INC., priority 2021, published 2024):
pIC50: −log10 of the molar value. Counter-ions that a name gives are not always drawn.

Key:
Target C mRNA = experiment: Gene panel canonical junction qPCR assay, Target C CJ mRNA decrease; type: cell-based; conditions: Homo sapiens, canonical junction qPCR, read-out: Target C IC50 (decrease in CJ mRNA levels)
Procedure, shortened: (§1)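 IC50 values describe loss of canonical-junction transcript, fitted by 4-parameter logistic to percent response derived from fixed ΔCt windows. Read-out: RT-qPCR on lysates of compound-treated K562 or A673 cells, probes overlapping the exon junction, ΔΔCt versus housekeeping gene and DMSO control.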

MYB mRNA = experiment: Gene panel canonical junction qPCR assay, MYB CJ mRNA decrease; type: cell-based, human; conditions: Homo sapiens, canonical junction qPCR, read-out: MYB IC50 (decrease in CJ mRNA levels)
Procedure, shortened: as §1

HTT mRNA = experiment: Gene panel canonical junction qPCR assay, HTT CJ mRNA decrease; type: cell-based, human; conditions: Homo sapiens, canonical junction qPCR, read-out: HTT IC50 (decrease in CJ mRNA levels)
Procedure, shortened: as §1

HiBiT-tagged HTT protein = experiment: HiBiT protein abundance assay, HTT (K562 HiBiT knock-in cells); type: cell-based, human; conditions: 24 hours
Procedure, shortened: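 Luminescent readout of HiBiT-tagged endogenous protein after lysis, following 24 h compound exposure of knock-in K562 lines at 37 °C. Ten 3-fold concentrations from 10 μM final, DMSO ≤0.25%. Four-parameter logistic fit of normalized response gives concentration halving abundance (IC50).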

| SMILES | pIC50 (Target C mRNA) | pIC50 (MYB mRNA) | pIC50 (HTT mRNA) | pIC50 (HiBiT-tagged HTT protein) |
| --- | --- | --- | --- | --- |
| O=C(Nc1cn[nH]c1)c1ccc(N2CCNCC2)c2ccnnc12 [Compound 126] | < 5.00 | < 5.00 | < 5.00 | < 5.00 |
| Cc1ccc2c(N3CCNCC3)ccc(C(=O)Nc3cc(F)c4nc(C)cn4c3)c2n1 [Compound 162, N-{8-fluoro-2-methylimidazo[1,2-a]pyridin-6-yl}-2-methyl-5-(piperazin-1-yl)quinoline-8-carboxam-ide, trifluoroacetic acid] | 5.00 to 6.00 | > 7.00 | 5.00 to 6.00 | 6.00 to 7.00 |
| Cc1cn2cc(NC(=O)c3ccc(N4CCC(N5CCCC5)C4)c4ccnnc34)cc(F)c2n1 (stereo not drawn) [Compound 133] | 5.00 to 6.00 | 5.00 to 6.00 | 5.00 to 6.00 | 5.00 to 6.00 |
| Cc1cn2cc(NC(=O)c3ccc(N4CCNC(C)(C)C4)c4nccnc34)cc(F)c2n1 [Compound 220, 8-(3,3-dimethylpiperazin-1-yl)-N-{8-fluoro-2-methylimidazo[1,2-a]pyridin-6-yl}quinoxaline-5-carboxamide] | 5.00 to 6.00 | > 7.00 | 5.00 to 6.00 | 5.00 to 6.00 |
| Cc1cn2cc(NC(=O)c3ccc(N4CCC(N(C)C)CC4)c4ccnnc34)cc(F)c2n1 [Compound 137] | 6.00 to 7.00 | > 7.00 | 6.00 to 7.00 | 6.00 to 7.00 |
| CN[C@H]1CCN(c2ccc(C(=O)Nc3cc(F)c4nc(C)cn4c3)c3nccnc23)C1 (single isomer, unassigned) [Compound 194, N-{8-fluoro-2-methylimidazo[1,2-a]pyridin-6-yl}-8-[3-(methylamino)pyrrolidin-1-yl]quinoxaline-5-carboxamide] | 5.00 to 6.00 | > 7.00 | 5.00 to 6.00 | 5.00 to 6.00 |
| Cc1cn2cc(NC(=O)c3ccc(N4C[C@H]5C[C@@H]4C5N(C)C)c4ccnnc34)cc(F)c2n1 (stereo partly drawn) [Compound 155] | < 5.00 | 5.00 to 6.00 | < 5.00 | < 5.00 |
| Cc1cn2cc(NC(=O)c3ccc(N4CCNCC4)c4ccnnc34)nc(C)c2n1 [Compound 164, N-{2,8-dimethylimidazo[1,2-a]pyrazin-6-yl}-5-(piperazin-1-yl)cinnoline-8-carboxamide 2,2,2-trifluoroacetate] | < 5.00 | 6.00 to 7.00 | < 5.00 | 5.00 to 6.00 |
| Cc1cn2cc(NC(=O)c3ccc(N4C[C@@H](C)N[C@@H](C)C4)c4ccnnc34)nc(C)c2n1 [Compound 172, N-{2,8-dimethylimidazo[1,2-a]pyrazin-6-yl}-5-[(3R,5S)-3,5-dimethylpiperazin-1-yl]cinnoline-8-carboxamide] | 5.00 to 6.00 | 6.00 to 7.00 | < 5.00 | < 5.00 |
| Cc1cn2nc(NC(=O)c3ccc(N4CCNCC4)c4ccnnc34)cc2c(C)n1 [Compound 123] | 5.00 to 6.00 | 5.00 to 6.00 | 5.00 to 6.00 | 5.00 to 6.00 |
| Cc1cn2cc(NC(=O)c3ccc(N4CCN[C@H](C)C4)c4ccnnc34)cc(F)c2n1 [Compound 146] | < 5.00 | > 7.00 | 6.00 to 7.00 | 6.00 to 7.00 |
| Cc1cn2cc(NC(=O)c3ccc(N4CCNC5(CCOC5)C4)c4nccnc34)cc(F)c2n1 (stereo not drawn) [Compound 373] | < 5.00 | 6.00 to 7.00 | < 5.00 | 5.00 to 6.00 |

Next, values leading:

| pIC50 (Target C mRNA) | pIC50 (MYB mRNA) | pIC50 (HTT mRNA) | pIC50 (HiBiT-tagged HTT protein) | SMILES |
| --- | --- | --- | --- | --- |
| 5.00 to 6.00 | 6.00 to 7.00 | 5.00 to 6.00 | 5.00 to 6.00 | CCN1CCC(c2ccc(C(=O)Nc3cc(F)c4nc(C)cn4c3)c3nnccc23)CC1 [Compound 141] |
| 5.00 to 6.00 | 6.00 to 7.00 | 5.00 to 6.00 | 5.00 to 6.00 | Cc1cn2cc(NC(=O)c3ccc(N4CCNC5(CCOCC5)C4)c4nccnc34)cc(F)c2n1 [Compound 374] |
| 5.00 to 6.00 | 6.00 to 7.00 | 5.00 to 6.00 | 5.00 to 6.00 | Cc1cn2cc(NC(=O)c3ccc(N4CCN(C)[C@@H](C)C4)c4ccnnc34)cc(F)c2n1 [Compound 150] |
| 5.00 to 6.00 | 6.00 to 7.00 | 5.00 to 6.00 | 5.00 to 6.00 | Cc1cn2cc(NC(=O)c3ccc(N4CCN5CCC[C@H]5C4)c4ccnnc34)cc(F)c2n1 [Compound 154] |
| 5.00 to 6.00 | 6.00 to 7.00 | 5.00 to 6.00 | 5.00 to 6.00 | CNC1CCN(c2ccc(C(=O)Nc3cc(F)c4nc(C)cn4c3)c3nc(C)ccc23)C1 (stereo not drawn) [Compound 196, N-{8-fluoro-2-methylimidazo[1,2-a]pyridin-6-yl}-2-methyl-5-[3-(methylamino)pyrrolidin-1-yl]quinoline-8-carboxamide 2,2,2-trifluoroacetate] |
| < 5.00 | > 7.00 | 5.00 to 6.00 | 5.00 to 6.00 | Cc1cn2cc(NC(=O)c3ccc(N4CCN[C@@H](C)C4)c4nccnc34)cc(F)c2n1 [Compound 187, N-{8-fluoro-2-methylimidazo[1,2-a]pyridin-6-yl}-8-(3-methylpiperazin-1-yl) quinoxaline-5-carboxamide] |
| 6.00 to 7.00 | 6.00 to 7.00 | 6.00 to 7.00 | 6.00 to 7.00 | Cc1cn2cc(NC(=O)c3ccc(N4CCNCC4)c4ccnnc34)[nH]c(=O)c2n1 [Compound 177, N-{2-methyl-8-oxo-7H-imidazo[1,2-a]pyrazin-6-yl}-5-(piperazin-1-yl)cinnoline-8-carboxamide trifluoroacetic acid salt] |
| < 5.00 | 6.00 to 7.00 | < 5.00 | 5.00 to 6.00 | Cc1nc(NC(=O)c2ccc(N3CCNCC3)c3ccnnc23)cc2cn(C)nc12 [Compound 178, N-{2,7-dimethylpyrazolo[3,4-c]pyridin-5-yl}-5-(piperazin-1-yl)cinnoline-8-carboxamide] |
| < 5.00 | 5.00 to 6.00 | < 5.00 | < 5.00 | CC(=O)c1cc(NC(=O)c2ccc(N3CCNCC3)c3ccnnc23)cn2cc(C)nc12 [Compound 163, N-{8-acetyl-2-methylimidazo[1,2-a]pyridin-6-yl}-5-(piperazin-1-yl)cinnoline-8-carboxamide] |
| < 5.00 | > 7.00 | < 5.00 | 5.00 to 6.00 | Cc1cn2cc(NC(=O)c3ccc(N4CCNC5(CC5)C4)c4nccnc34)cc(F)c2n1 [Compound 218, 8-{4,7-diazaspiro[2.5]octan-7-yl}-N-{8-fluoro-2-methylimidazo[1,2-a]pyridin-6-yl}quinoxaline-5-carboxamide] |
| 5.00 to 6.00 | > 7.00 | 6.00 to 7.00 | 6.00 to 7.00 | Cc1cn2cc(NC(=O)c3ccc(N4CCC5(CCN5)CC4)c4nccnc34)cc(F)c2n1 [Compound 189, 8-{1,7-diazaspiro[3.5]nonan-7-yl}-N-{8-fluoro-2-methylimidazo[1,2-a]pyridin-6-yl}quinoxaline-5-carboxamide] |
| 5.00 to 6.00 | 6.00 to 7.00 | 5.00 to 6.00 | 5.00 to 6.00 | CNC1CCN(c2ccc(C(=O)Nc3cc(F)c4nc(C)cn4c3)c3nccnc23)C1 (stereo not drawn) [Compound 190, N-{8-fluoro-2-methylimidazo[1,2-a]pyridin-6-yl}-8-[3-(methylamino)pyrrolidin-1-yl]quinoxaline-5-carboxamide] |
| < 5.00 | > 7.00 | 5.00 to 6.00 | 5.00 to 6.00 | COc1nc(NC(=O)c2ccc(N3CCNCC3)c3ccnnc23)cn2cc(C)nc12 [Compound 179, N-{8-methoxy-2-methylimidazo[1,2-a]pyrazin-6-yl}-5-(piperazin-1-yl)cinnoline-8-carboxamide] |
| 5.00 to 6.00 | 6.00 to 7.00 | 6.00 to 7.00 | 5.00 to 6.00 | Cc1ccc2c(N3CCC(N(C)C)CC3)ccc(C(=O)Nc3cc(F)c4nc(C)cn4c3)c2n1 [Compound 215, 5-[4-(dimethylamino)piperidin-1-yl]-N-{8-fluoro-2-methylimidazo[1,2-a]pyridin-6-yl}-2-methylquinoline-8-carboxamide] |
| < 5.00 | 6.00 to 7.00 | 5.00 to 6.00 | 5.00 to 6.00 | Cc1cnc2c(N3C[C@@H](C)N[C@@H](C)C3)ccc(C(=O)Nc3cc(F)c4nc(C)cn4c3)c2n1 [Compound 216, 8-((3R,5S)-3,5-dimethylpiperazin-1-yl)-N-{8-fluoro-2-methylimidazo[1,2-a]pyridin-6-yl}-3-methylquinoxaline-5-carboxamide] |
| < 5.00 | < 5.00 | < 5.00 | < 5.00 | Cc1cn2cc(NC(=O)c3ccc(N4CCNCC4)c4nnccc34)cc(F)c2n1 [Compound 166, N-(8-fluoro-2-methylimidazo[1,2-a]pyridin-6-yl)-8-(piperazin-1-yl)cinnoline-5-carboxamide 2,2,2-trifluoroacetate] |
| 5.00 to 6.00 | 5.00 to 6.00 | 5.00 to 6.00 | 5.00 to 6.00 | CNCC1CCN(c2ccc(C(=O)Nc3cc(F)c4nc(C)cn4c3)c3nccnc23)CC1 [Compound 192, N-{8-fluoro-2-methylimidazo[1,2-a]pyridin-6-yl}-8-{4-[(methylamino)methyl]piperidin-1-yl}quinoxaline-5-carboxamide trifluoroacetate] |
| < 5.00 | 6.00 to 7.00 | 5.00 to 6.00 | 5.00 to 6.00 | Cc1cn2cc(NC(=O)c3ccc(N4CCNC5(CC5)C4)c4ccnnc34)cc(F)c2n1 [Compound 105] |
